Measured values reported in patent US7494671B2, “Extract of Trapa natans and methods of using the same” (priority 2002, dated 2009).

Columns and labels:
Type in all cases: cell-based
Details in all cases: 50 ul saturated solution in 1 ml of cell media, in vitro
[1] = test system: Lncap, prostate cancer cells; assay: Cancer cell proliferation assay, Lncap
Protocol: (§1) […] For comparison purposes, the effects of two anticancer drugs, cisplatin and paclitaxel, on the growth of the three types of cancel cells were also determined in vitro.

[2] = test system: SW 480, colorectal cancer cells; assay: Cancer cell proliferation assay, SW 480
Protocol: as §1

HTB 72, melanoma cells = assay: Cancer cell proliferation assay, HTB 72
Protocol: as §1

Row | SMILES | Inhibition, % Lncap [1] [%] | Inhibition, % SW 480 [2] [%] | Inhibition, % HTB 72 (HTB 72, melanoma cells) [%]
1 | CC(=O)O[C@H]1C(=O)[C@@]2(C)[C@H]([C@H](OC(=O)c3ccccc3)[C@]3(O)C[C@H](OC(=O)[C@H](O)[C@@H](NC(=O)c4ccccc4)c4ccccc4)C(C)=C1C3(C)C)[C@]1(OC(C)=O)CO[C@@H]1C[C@@H]2O [Paclitaxel, paclitaxel] | 57.98 | 0.0 | 22.61
2 | N.N.[Cl][Pt][Cl] [Cisplatin, cisplatin] | 94.91 | 78.25 | 93.78
